ChEMBL document CHEMBL1275424, “In vitro activity of anidulafungin against Candida albicans biofilms” (2008)
Converted amounts (≈) assume the structure as drawn. Numbered stars: 1 amine (or outer) side, 2 acyl side, 3 side chain; on linkers, the order of the positions; unused ones are H or OH. Bridge positions count the residues as written; N and C are the ends. Square brackets hold non-standard residues; d marks the D form. Peptide text beside a SMILES is read from it. * marks the point of attachment. pTerphenylCO(4''-OnC5H11) = CCCCCOc1ccc(-c2ccc(-c3ccc(C(=O)*)cc3)cc2)cc1; Orn(4R-OH,5R-OH) = O=C([C@H](C[C@@H](O)[C@@H](O)N[*:3])N[*:1])[*:2]; hTyr(3S-OH,4S-OH) = N[C@H](C(=O)O)[C@H](O)[C@@H](O)c1ccc(O)cc1; Pro(3S-OH,4S-Me) = C[C@H]1CN[C@H](C(=O)O)[C@H]1O; Hyp = O=C(O)[C@@H]1C[C@@H](O)CN1

Key:
Assay type in all cases: functional
Candida albicans [1] = assay: Antimicrobial activity against Candida albicans grown as planktonic cell by broth microdilution method
Candida albicans [2] = assay: Antimicrobial activity against Candida albicans grown as planktonic cell after 48 hrs by broth microdilution method
Candida albicans [3] = assay: Antimicrobial activity against Candida albicans GDH2346 grown as sessile cell after 48 hrs by broth microdilution method; settings: GDH2346, 48 h
Candida albicans [4] = assay: Antimicrobial activity against Candida albicans grown as sessile cell after 48 hrs by broth microdilution method
Candida albicans [5] = assay: Antimicrobial activity against Candida albicans grown as planktonic cell after 24 hrs by broth microdilution method

SMILES	MIC90 (Candida albicans [1]) [µg/mL]	MIC (Candida albicans [2]) [µg/mL]	MIC (Candida albicans [3]) [µg/mL]	MIC (Candida albicans [4]) [µg/mL]	MIC (Candida albicans [5]) [µg/mL]	MIC (Candida albicans [1]) [µg/mL]	MIC50 (Candida albicans [1]) [µg/mL]
C[C@@H]1[C@H](O)[C@@H](C)/C=C/C=C/C=C/C=C/C=C/C=C/C=C/[C@H](O[C@@H]2O[C@H](C)[C@@H](O)[C@H](N)[C@@H]2O)C[C@@H]2O[C@](O)(C[C@@H](O)C[C@@H](O)[C@H](O)CC[C@@H](O)C[C@@H](O)CC(=O)O[C@H]1C)C[C@H](O)[C@H]2C(=O)O [AMPHOTERICIN B]	0.25 (≈ 0.271 µM)						
CCCCCOc1ccc(-c2ccc(-c3ccc(C(=O)N[C@H]4C[C@@H](O)[C@@H](O)NC(=O)[C@@H]5[C@@H](O)[C@@H](C)CN5C(=O)[C@H]([C@@H](C)O)NC(=O)[C@H]([C@H](O)[C@@H](O)c5ccc(O)cc5)NC(=O)[C@@H]5C[C@@H](O)CN5C(=O)[C@H]([C@@H](C)O)NC4=O)cc3)cc2)cc1 [ANIDULAFUNGIN] ({pTerphenylCO(4''-OnC5H11)}-[Orn(4R-OH,5R-OH)]T[Hyp][hTyr(3S-OH,4S-OH)]T[Pro(3S-OH,4S-Me)]; lactam 1-C)	0.125 (≈ 0.11 µM)	≤ 0.5	≤ 0.03	> 0.03	0.125 (≈ 0.11 µM)	≤ 0.03	≤ 0.03
CC[C@H](C)C[C@H](C)CCCCCCCCC(=O)N[C@H]1C[C@@H](O)[C@@H](NCCN)NC(=O)[C@@H]2[C@@H](O)CCN2C(=O)[C@H]([C@H](O)CCN)NC(=O)[C@H]([C@H](O)[C@@H](O)c2ccc(O)cc2)NC(=O)[C@@H]2C[C@@H](O)CN2C(=O)[C@H]([C@@H](C)O)NC1=O [CASPOFUNGIN]	0.5 (≈ 0.457 µM)						
C[C@@H](c1ncncc1F)[C@](O)(Cn1cncn1)c1ccc(F)cc1F [VORICONAZOLE]	> 0.06						
